# Source: patent US20110251230A1, “THERAPEUTICS FOR NEUROLOGICAL DISORDERS” (UNIVERSITY OF SHEFFIELD, priority 2008, published 2011)
# Where two headings read alike, the source gives them in different places.
# What was measured:
# [1] = tested on: NRF2-ARE pathway in the CHO 4× ARE-TK cell line; test: ARE reporter assay in CHO 4×ARE-TK-GFP cell line (GFP induction, EthD1 toxicity); conditions: for maximal fold induction: read-out: Average fold GFP induction at maximal response
# Description: Chinese Hamster Ovary (CHO), NSC34 mouse motor neuronal cells, C6 (rat) and 1321N1 (human) astrocytic lines were routinely maintained in DMEM supplemented with 10% FBS and penicillin/streptomycin. […] These plasmids were transfected into CHO, C6 and 1321N1 cell lines using Lipofectamine 2000 (Invitrogen) and following 10-14 days of selection in 0.5 mg/ml G418 they were expanded and selected for basal eGFP expression using fluorescence activated cell sorting (BD, FACSAria) with two sequential cell sorts for each cell line. These mixed populations of stable transfectants with basal eGFP expression were used in subsequent assays and designated 4×ARE-TK-GFP for the ARE containing line and TK-GFP for the control cell line. […]
# Confluent cultures of 4×ARE-TK-GFP CHO or TK-GFP CHO expressing cells in 96 or 384-well tissue-culture plates were treated with drug (0.01-100 µM in triplicate) or vehicle (0.1-1% DMSO) in FCS-free DMEM in triplicate for 24 hours. The media was removed and replaced with the same volume of PBS containing 0.3 μM EthD1. […] Non-linear regression was used to fit a sigmoidal dose-response curve on a semi-Log plot to calculate the EC50 using GraphPad Prism (GraphPad Software). The reporter assay was conducted in a similar fashion in C6 and 1321N1 astrocyte cell lines stably transfected with the 4×ARE-TK-GFP and TK-GFP constructs except that Eth D1 was added directly in the media and read prior to washing the cells once and reading the […] signal. […]
# The compounds were applied in triplicate to confluent cells in 96 well plates in serum free medium for 24 hours and the induction of GFP measured in a fluorescence plate reader. […]
# [2] = tested on: G93A mouse model of ALS; conditions: higher doses, once a day, orally from 60 days of age; prior art; cited from earlier work
# [3] = tested on: motor neuronal cell line expressing mutant (G93A) human SOD1; conditions: prior art; cited from earlier work
# [4] = tested on: Haem oxygenase 1 and NQO1 gene expression in C6 cells; test: Multiplex/quantitative RT-PCR for NRF2 regulated genes in C6 cells; format: cell-based, rat
# Description: (§1) Quantitative RT-PCR. (Q-PCR) was performed using 25 ng of cDNA, 1× SYBR Green PCR Master Mix (Stratagene) and optimised concentrations of forward and reverse primers (Table 1), in a total volume of 20 μl and in triplicate for each sample. Following denaturation at 95° C. for 10 min, products were amplified by 40 cycles of 95° C. for 15 s and 60° C. for 1 min, on an MX3000P Real Time PCR System (Stratagene). To ensure amplification of a single product the dissociation curve was produced for each amplification. The relative levels of the genes of interest in the samples was determined by normalizing the level of expression to that of gapdh in each of the samples and by using the ddCt calculation (SYBR Green PCR mix and RT-PCR protocol, Applied Biosystems). Overall relative concentrations of the genes of interest were calculated following drug treatment by normalising the data to the cells grown in the vehicle (DMSO).
# [5] = tested on: NQO1 and HO1 transcripts in primary mouse astrocytes from G93A mutant SOD1 transgenic mice; test: Quantitative RT-PCR of NQO1 and HOX1 in G93A mutant SOD1 primary mouse astrocytes; format: cell-based
# Description: as §1
# [6] = tested on: motor neurones (MN) in primary mouse astrocyte/MN co-cultures; test: Menadione stress in primary mouse astrocyte/motor neurone co-cultures; format: cell-based
# Description: Mouse glial cultures were established from C57BI/6 cortices from 1-2 day old pups. Cortices were dissected out and cells dissociated by trituration following incubation in DNasel, collagenase and trypsin. The incubation and trituration steps were repeated to ensure complete dissociation of cells. Cells were plated at 45,000 cells/cm^2 in DMEM containing 10% FBS, 100 U/ml penicillin, and 100 μg/ml streptomycin. After 24 hours, cultures were washed in PBS and grown for 2-3 weeks until confluent, changing the medium once a week. Confluent glial cultures were enriched for astrocytes by shaking and mild trypsinisation. Enriched astrocytes were grown to confluency and plated onto coverslips coated with poly-D-ornithine (1.5 mg/ml; Sigma, Poole, UK) at 40,000 cells/cm^2, and grown for 1 week. […]
# When co-cultures were established for 2 weeks, neuroprotection assays were performed by 24 hrs exposure to drug or vehicle followed by a 6 hour 10 micromolar menadione oxidative stress or glutamate. […] Total MNs were counted by fluorescent microscopy in a 1.5 cm^2 area per coverslip. […] Both vehicle and drug treatments were counted before and after stress treatment, and results were statistically analysed by 2 way anova using Bonferroni post tests.
# The co-cultures were then challenged for 6 hours with 10 μM menadione to induce oxidative stress and motor neurones stained and counted. […]
# [7] = tested on: HO-1 and NQO-1 transcripts; test: In vivo pharmacodynamics, QRT-PCR for HO-1 and NQO-1 in mice; conditions: mouse
# [8] = tested on: NRF2-ARE pathway in C6 cells; test: ARE reporter assay in C6 astrocyte cell line; format: cell-based, rat
# From the text: NRF2-ARE Inducing activity of the best hit compounds in neuronal and astrocytic cell lines was investigated. In order to determine whether the differences in protection in astrocytic and motor neuronal cell lines was due to differences in the degree of activation of the NRF2-ARE pathway in these cell types, the NRF2-ARE reporter construct was stably expressed in both the astrocytic (C6) and motor neuronal (NSC34) cell lines. The 17 best hit molecules were then screened in each cell line. We also screened the S [+] enantiomer of apomorphine as it can exist as either an R[−] or S[+] enantiomer. The […] enantiomer has dopamine agonist activity whereas the S[+] enantiomer has lost this activity and so we wanted to determine whether it retains NRF2-ARE inducing activity. In general activation of the NRF2-ARE pathway in the C6 cells was similar to that seen in the CHO cell line. […].
# [9] = mouse, in vivo, iv
# [10] = tested on: C6 (rat) astrocytic line; test: C6 oxidative stress assay (serum withdrawal, DCF); conditions: for IC50: C6, 24 h pre-treatment, serum withdrawal, DCF
# Description: (§2) A simple oxidative stress assay was used to determine whether preconditioning with NRF2-ARE inducing drugs could protect against a subsequent oxidative stress insult (serum withdrawal). The NSC34, C6 and 1321N1 cells were plated in 96 well tissue culture plates to achieve 30% confluency. […] Media was then replaced with serum free, phenol free media for 5 hrs. […] Cell survival assay was then performed on the cells as protection is measured as % reduction in DCF signal, therefore data points were excluded where a decrease in cell number was measured.
# (§3) Briefly methylthiazolyldiphenyl-tetrazolium bromide (MTT) was added to the cells and a blank well to a final concentration 0.5 mg/ml and incubated at 37° C. for 1-3 hrs depending on the cell line used.
# [11] = tested on: 1321N1 (human) astrocytic line; test: 1321N1 oxidative stress assay (serum withdrawal, DCF); conditions: for IC50: 1321N1, 24 h pre-treatment, serum withdrawal, DCF
# Description: as §2, §3
# [12] = tested on: NSC34 mouse motor neuronal cells; test: NSC34 oxidative stress assay (serum withdrawal, DCF)
# Description: as §2, §3
# [13] = tested on: NSC34 mouse motor neuronal cells
# Description: as §2, §3
# [14] = tested on: 1321N1 (human) astrocytic line
# Description: as §2, §3
# [15] = tested on: C6 (rat) astrocytic line
# Description: as §2, §3
smiles,measurement,setting,value
"O=C(O[C@@H]1Cc2c(O)cc(O)cc2O[C@@H]1c1cc(O)c(O)c(O)c1)c1cc(O)c(O)c(O)c1 [EGCG, catechin-(−) epigallocatechin-3-gallate, reference compound]",fluorescence in the control TK-GFP cell line,[1]; control TK-GFP CHO cell line,No increase in fluorescence
same,concentration of peak ARE activation (GFP expression),"[1]; narrow window, 24 h, serum free medium",100 µM
same,survival,[2],significant extension in survival
same,concentration giving partial protection from H2O2 induced cell death,[3],greater than 20 μM
"CN1CCc2cccc3c2[C@H]1Cc1ccc(O)c(O)c1-3.Cl (single isomer, unassigned) [S[+] apomorphine, S [+] apomorphine]",Haem oxygenase 1 and NQO1 gene expression,[4],statistically significant changes in gene expression
same,transcripts for NQO1 and HO1,[5],significant increase
same,reduction in motor neurone number after menadione,[6],not seen
same,induction of HO-1 and NQO-1 transcripts,[7],significant induction
same,NRF2-ARE activation in C6 reporter cell line,[8],equally potent
same,"levels of the compound in plasma, brain and cerebral spinal fluid",[9],detected
C=C1CC[C@@H]2[C@](C)(CO)[C@H](O)CC[C@@]2(C)[C@@H]1C/C=C1/C(=O)OC[C@H]1O [Andrographolide],Lowest dose with toxicity,[10]; C6,10 µM
same,IC50,[10],192 nM
same,Haem oxygenase 1 and NQO1 gene expression,"[4]; C6 cells, 24 h, EC50 and EC90 concentrations",statistically significant changes in gene expression
same,transcripts for NQO1 and HO1,"[5]; G93A mutant SOD1 astrocytes, 24 hour pre-treatment, EC90 concentrations",significant increase
same,Lowest dose with toxicity,"[1]; Chinese hamster, 24 h",100 µM
same,EC50,"[1]; Cricetulus griseus, 24 h, read-out: Average EC50, CHO 4×ARE-TK-GFP, GFP induction, 24 h",740 nM
same,maximal fold induction,"[1]; Cricetulus griseus, 24 h",3.61
same,EC50,"[1]; Cricetulus griseus, CHO ARE reporter",740 nM
same,Lowest dose with toxicity,[11]; 1321N1,10 µM
same,IC50,[11],501 nM
same,reduction in motor neurone number after menadione,"[6]; 24 h pre-treatment, 6 hours 10 μM menadione, DMSO control approximately 25% reduction",not seen
same,Lowest dose with toxicity,[12]; NSC34,10 µM
"C[C@@H]1C(=O)O[C@H]2[C@H]1CC[C@@]1(C)C=CC(=O)[C@@]3(C)O[C@@]213 [epoxy(4,5α)-4,5-dihydrosantonin]",IC50,[10],2130 nM
same,Maximal % reduction in Oxidative stress,"[10]; C6, DCF fluorescence",62%
same,Average fold GFP induction at maximal response,"[1]; CHO 4×ARE-TK-GFP, 24 h",2.91 fold
same,Lowest dose with toxicity,[1]; CHO ARE reporter assay,100 µM
same,EC50,"[1]; read-out: Average EC50, CHO 4×ARE-TK-GFP, GFP induction, 24 h",18200 nM
same,IC50,[11],662 nM
same,Maximal % reduction in Oxidative stress,"[11]; 1321N1, DCF fluorescence",63%
same,Lowest dose with toxicity,[13],3 µM
same,Lowest dose with toxicity,[14],none
same,Maximal % reduction in Oxidative stress,"[12]; NSC34, DCF fluorescence, negative = pro-oxidant",0%
same,Lowest dose with toxicity,[15],none
CC(C)N(C(=O)CCl)c1ccccc1 [Propachlor],IC50,[10],645 nM
same,Lowest dose with toxicity,"[1]; Chinese hamster, 24 h",100 µM
same,EC50,"[1]; Cricetulus griseus, 24 h, read-out: Average EC50",1490 nM
same,maximal fold induction,"[1]; Cricetulus griseus, 24 h",3.25
same,IC50,[11],829 nM
same,Lowest dose with toxicity,"[13]; mouse, 24 h",10 µM
same,Lowest dose with toxicity,"[14]; human, 24 h",10 µM
same,Lowest dose with toxicity,"[15]; rat, 24 h",10 µM
"CC(=O)OC1CC[C@@]2(C)C(CC[C@H]3[C@@H]4CC=C(C(C)=O)[C@@]4(C)C(=O)C[C@@H]32)C1 (some centres unmarked) [3 acetoxypregn-16-en-12,20-dione]",Lowest dose with toxicity,"[1]; Chinese hamster, 24 h",30 µM
same,maximal fold induction,"[1]; Cricetulus griseus, 24 h",3.14
same,IC50,[11],~12400 nM
same,Lowest dose with toxicity,[13],none
same,Lowest dose with toxicity,[14],none
same,Lowest dose with toxicity,[15],none
